Reference: US12194140B2, “Compositions for topical treatment of microbial infections” (Hennepin Life Sciences, priority 2012, dated 2025)
Entries after “also recorded” stand apart in the source; their conditions may differ.

Key:
E. coli (Watson strain) = assay: GML and EDTA on the growth of E. coli; format: cell-based; details: 24 hours; EDTA 0.05 M to 0.00005 M; GML 100 μg/mL
Description: E. coli (Watson strain) was adjusted to I.2×10^7/mL in Todd Hewitt media. […] Cultures were incubated with shaking (200 RPM) for 24 hours, at which time samples were removed for plate counting. To further assess the combined effects of GML and EDTA, the experiment was carried out as above, and the relative effects on the growth of E. coli of EDTA alone or the combination of GML and EDTA were assessed in direct comparison to GML alone.

S. pyogenes (strain 594) = assay: Antibacterial effects of various forms of GML; format: cell-based
Description: In order to test for potential differences between the optical isomers, the R form of GML, which is commercially available, was compared to a GML racemic mixture of the R and S forms. […] Antibacterial effects of these forms of GML was assessed on S. pyogenes (strain 594).

[1] = Solubility of Tenofovir in non-aqueous gels; format: physicochemical; details: 10 mg/mL
Description: Non-aqueous gels comprised of propylene glycol (73.55% w/w), polyethylene glycol 400 (25% w/w), and hydroxypropyl cellulose (1.25% w/w) at a range of pH from 4.0 to 4.5 were prepared. The anti-HIV drug Tenofovir was added to the gels at a concentration of 10 mg/mL to determine if the drug was soluble in the compositions.

Compound: O=C(O)CN(CCN(CC(=O)O)CC(=O)O)CC(=O)O [EDTA, ethylenediaminetetraacetic acid]
- anti-bacterial activity on growth of E. coli (CFU/mL) (E. coli (Watson strain)): inhibited the growth of E. coli somewhat, in a dose-dependent manner; also recorded: inhibited the growth of E. coli to some extent at higher concentrations

Compound: CCCCCCCCCCCC(=O)OC(CO)CO [Glycerol monolaurate (GML) 2-position]
- activity relative to the mixture of 2-position and ⅓-position GML forms (S. pyogenes (strain 594)): 2 fold

Compound: CCCCCCCCCCCC(=O)OC[C@H](O)CO [R form GML]
- antibacterial activity, R form versus mixture of R and S forms (S. pyogenes (strain 594)): same antibacterial activity

Compound: C[C@H](Cn1cnc2c(N)ncnc21)OCP(=O)(O)O [Tenofovir]
- solubility in non-aqueous gel ([1]; pH 4.0-4.3): not soluble
- solubility in non-aqueous gel ([1]; pH 4.4 or 4.5): soluble

Compound: CCCCCCCCCCCC(=O)OCC(O)CO (stereo not drawn) [mixture of R and S form GML]
- antibacterial activity, R form versus mixture of R and S forms (S. pyogenes (strain 594)): same antibacterial activity
